# Measurements from patent publication US8609609B2, “Peptides and methods of use as therapeutics and screening agents” (North Carolina State University, priority 2008, dated 2013).
# No end group written: not given here.
# Legend:
# [1] = tested on: fully modified human tRNA^LYS3 anticodon stem and loop domain (modified ASL^LYS3); assay: Fluorescence titration of fluorescein-conjugated peptides with modified ASL^LYS3; assay type: binding; details: for binding to the modified ASL^LYS3 (fluorescence monitored): fluorescein-conjugated peptide titrated with modified ASL^LYS3; for specific recognition of the modifications of the ASLLys3: comparison of titration with modified and with unmodified ASL^LYS3
# From the text: (§1) The sequences of the target ASLLys3 and that of control ASLs are shown. Peptides were selected against the ASLLys3 and tested against all three. The ASL^LYS3 contains the natural modified nucleosides, 5-methoxycarbonylmethyl-2-thiouridine-34 (mcm5s2U34), 2-methylthio-N6-threonylcarbamoyladenosine-37 (ms2t6A37), and pseudouridine-39 (Ψ39).
# (§2) Peptides were selected by phage display methods to bind to the modified ASL^LYS3. Control peptides were selected for their lack of recognition. Each peptide is synthesized with a conjugated fluorescein as a reporter. Here control peptide #21 is titrated with the three ASLs and the fluorescence is monitored.
# (§3) Peptides #6 and #17 were selected by phage display methods to bind to the modified ASL^LYS3. These peptides along with control peptide #21 were synthesized with a conjugated fluorescein as a reporter. Here the three peptides are titrated with the modified ASLLys3 and the fluorescence is monitored.
# [2] = tested on: unmodified ASL^LYS3; assay: Fluorescence titration of fluorescein-conjugated peptides with unmodified ASL^LYS3; assay type: binding; details: fluorescein-conjugated peptide titrated with unmodified ASL^LYS3
# From the text: as §1, §2
# as §3, with “unmodified ASL^LYS3” for “modified ASLLys3”
# [3] = tested on: Feline (FEA) cells; assay: Shear-loading of feline (FEA) cells with fluorescein-conjugated peptide: fluorescence microscopy and toxicity staining; assay type: cell-based; details: after 1, 2 and 3 days, at the concentrations used for loading
# From the text: Feline (FEA) cells are “shear-loaded” with the peptide #6 that binds the modified ASLLys3. Fluorescein-conjugated, peptide #6 is located with fluorescence microscopy First row: Sham loaded cells. Second row: Peptide loaded. Third row: Peptide loaded at 40× magnification.
# [4] = tested on: equine infectious anemia virus (EIAV); assay: Reverse transcriptase activity in EIAV infected feline (FEA) cells shear-loaded with peptide; assay type: cell-based
# Procedure: (§4) EIAV is a lentivirus as is HIV, and as such utilizes the host cell tRNA^LYS3 for priming reverse transcription. EIAV infected feline (FEA) cells are “shear-loaded” with three concentrations (5, 10, 35) of peptide #6 that binds the modified ASL^LYS3 portion of HIV primer. Cells are sham loaded with phosphate buffered saline (PBS). The effect of the peptide on reverse transcriptase activity and on toxicity are determined after 1, 2 and 3 days.
# [5] = tested on: EIAV infected feline (FEA) cells; assay: Toxicity by staining in EIAV infected feline (FEA) cells shear-loaded with peptide; assay type: cell-based
# Procedure: as §4
Sequence,binding to the modified ASL^LYS3 (fluorescence monitored) [1],binding to the unmodified ASL^LYS3 (fluorescence monitored) [2],specific recognition of the modifications of the ASLLys3 [1],"toxicity, determined by staining [3]","reverse transcriptase activity ([4]; EIAV infected FEA cells loaded with fluorescein-conjugated peptide, three concentrations (5, 10, 35), versus PBS sham loaded)","bioactivity in cells against reverse transcription ([4]; EIAV infected FEA cells, at days 2 and 3)",toxicity (staining of the cells) ([5]; high concentration),toxicity (staining of the cells) ([5]; low and middle concentrations)
"NGPECNAYMVRCRGYH (cysteine pairing not given here; also: fluorescein label, position not given here) [compound 17]",bind,do not exhibit binding,–,–,–,–,–,–
"PAVASTSSLIIDGPF (also: fluorescein label, position not given here) [peptide #6]",bind,do not exhibit binding,specifically recognizing the modifications,not toxic,significantly reduced,significant bioactivity,only slightly toxic,not toxic
PKAFQYGGRAVGGLW (hASL LYS3 binding peptide) [compound 7],–,–,specifically recognizing the modifications,–,–,–,–,–
